# In ChEMBL document CHEMBL4359868, “New anthranilic acid-incorporating N-benzenesulfonamidophthalimides as potent inhibitors of carbonic anhydrases I, II, IX, and XII: Synthesis, in vitro testing, and in silico assessment” (Eur J Med Chem, 2019):
# Molecular target: Carbonic anhydrase 1 (Homo sapiens, UniProt P00915)
# Experiment: Inhibition of recombinant human CA1 preincubated for 15 mins by phenol red dye-based stopped-flow CO2 hydration assay
# Details: not given
# Carbonic anhydrase 1, sequence (P00915 whole entry): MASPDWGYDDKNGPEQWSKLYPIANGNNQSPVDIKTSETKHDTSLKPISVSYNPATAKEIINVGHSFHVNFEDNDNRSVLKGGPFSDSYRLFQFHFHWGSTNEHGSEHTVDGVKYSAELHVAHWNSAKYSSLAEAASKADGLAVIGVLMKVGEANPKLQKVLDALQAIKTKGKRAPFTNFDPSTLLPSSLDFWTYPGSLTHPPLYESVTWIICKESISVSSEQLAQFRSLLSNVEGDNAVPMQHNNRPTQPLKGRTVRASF
row,SMILES,Ki [µM]
1,COc1ccc(NC(=O)c2ccc3c(c2)C(=O)N(CCc2ccccc2)C3=O)c(C(=O)O)c1,> 100
2,COc1ccc(NC(=O)c2ccc3c(c2)C(=O)N(Cc2ccccc2)C3=O)c(C(=O)O)c1,> 100
3,COc1ccc(NC(=O)c2ccc3c(c2)C(=O)OC3=O)c(C(=O)O)c1,> 0.1

# The remaining lines, values ahead:
row,Ki [µM],SMILES
1,> 100,O=C(Nc1ccc(Cl)cc1C(=O)O)c1ccc2c(c1)C(=O)N(Cc1ccccc1)C2=O
2,> 100,O=C(Nc1ccc(Cl)cc1C(=O)O)c1ccc2c(c1)C(=O)N(c1ccccc1)C2=O
3,> 100,O=C(Nc1ccc(Cl)cc1C(=O)O)c1ccc2c(c1)C(=O)N(CCc1ccccc1)C2=O

# Molecular target: T1, Carbonic anhydrase 9 (Homo sapiens, UniProt Q16790)
# Experiment: Inhibition of recombinant human CA9 at 10^-4 M preincubated for 15 mins by phenol red dye-based stopped-flow CO2 hydration assay
# Details: not given
row,inhibition [%],SMILES
1,92,O=C(O)c1ccc(N2C(=O)c3ccc(C(=O)Nc4ccc(Cl)cc4C(=O)O)cc3C2=O)cc1

# Molecular target: T1, Carbonic anhydrase 9
# Details: at 0.1 µM
# Description: Inhibition of recombinant human CA9 at 10^-7 M preincubated for 15 mins by phenol red dye-based stopped-flow CO2 hydration assay
row,inhibition [%],SMILES
1,17,O=C(O)c1ccc(N2C(=O)c3ccc(C(=O)Nc4ccc(Cl)cc4C(=O)O)cc3C2=O)cc1
2,84,NS(=O)(=O)c1ccc(N2C(=O)c3ccc(C(=O)Nc4ccc(Cl)cc4C(=O)O)cc3C2=O)cc1

# Molecular target: T1, Carbonic anhydrase 9
# Details: at 0.01 µM
# Description: Inhibition of recombinant human CA9 at 10^-8 M preincubated for 15 mins by phenol red dye-based stopped-flow CO2 hydration assay
row,inhibition [%],SMILES
1,63,NS(=O)(=O)c1ccc(N2C(=O)c3ccc(C(=O)Nc4ccc(Cl)cc4C(=O)O)cc3C2=O)cc1

# Molecular target: T1, Carbonic anhydrase 9
# Details: at 1 µM
# Description: Inhibition of recombinant human CA9 at 10^-6 M preincubated for 15 mins by phenol red dye-based stopped-flow CO2 hydration assay
row,inhibition [%],SMILES
1,70,O=C(O)c1ccc(N2C(=O)c3ccc(C(=O)Nc4ccc(Cl)cc4C(=O)O)cc3C2=O)cc1
2,96,NS(=O)(=O)c1ccc(N2C(=O)c3ccc(C(=O)Nc4ccc(Cl)cc4C(=O)O)cc3C2=O)cc1

# Molecular target: Carbonic anhydrase 12 (Homo sapiens, UniProt O43570)
# Details: not given
# Carbonic anhydrase 12, sequence (O43570 whole entry): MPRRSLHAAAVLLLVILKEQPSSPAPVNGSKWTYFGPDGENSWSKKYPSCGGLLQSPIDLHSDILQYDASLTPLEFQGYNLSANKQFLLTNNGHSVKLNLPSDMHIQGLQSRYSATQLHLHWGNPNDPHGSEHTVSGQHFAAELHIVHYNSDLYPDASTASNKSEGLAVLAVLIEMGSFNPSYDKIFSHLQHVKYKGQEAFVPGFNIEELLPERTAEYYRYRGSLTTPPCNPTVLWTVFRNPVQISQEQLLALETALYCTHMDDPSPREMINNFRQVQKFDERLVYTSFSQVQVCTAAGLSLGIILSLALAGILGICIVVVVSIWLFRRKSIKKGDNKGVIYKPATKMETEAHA
row,SMILES,Ki [µM]
1,COc1ccc(NC(=O)c2ccc3c(c2)C(=O)N(CCc2ccccc2)C3=O)c(C(=O)O)c1,> 100
2,COc1ccc(NC(=O)c2ccc3c(c2)C(=O)N(Cc2ccccc2)C3=O)c(C(=O)O)c1,> 100
3,COc1ccc(NC(=O)c2ccc3c(c2)C(=O)OC3=O)c(C(=O)O)c1,> 0.1

# Continued, values first:
row,Ki [µM],SMILES
1,> 100,O=C(Nc1ccc(Cl)cc1C(=O)O)c1ccc2c(c1)C(=O)N(Cc1ccccc1)C2=O
2,> 100,COc1ccc(NC(=O)c2ccc3c(c2)C(=O)N(c2ccccc2)C3=O)c(C(=O)O)c1
3,> 100,O=C(Nc1ccc(Cl)cc1C(=O)O)c1ccc2c(c1)C(=O)N(c1ccccc1)C2=O
4,> 100,O=C(Nc1ccc(Cl)cc1C(=O)O)c1ccc2c(c1)C(=O)N(CCc1ccccc1)C2=O

# Molecular target: T1, Carbonic anhydrase 9
# Details: 10^-5 M
# Description: Inhibition of recombinant human CA9 at 10^-5 M preincubated for 15 mins by phenol red dye-based stopped-flow CO2 hydration assay
row,inhibition [%],SMILES
1,85,O=C(O)c1ccc(N2C(=O)c3ccc(C(=O)Nc4ccc(Cl)cc4C(=O)O)cc3C2=O)cc1

# Molecular target: T1, Carbonic anhydrase 9
# Details: not given
row,SMILES,Ki [µM]
1,COc1ccc(NC(=O)c2ccc3c(c2)C(=O)N(CCc2ccccc2)C3=O)c(C(=O)O)c1,31
2,NS(=O)(=O)c1ccc(CCN2C(=O)c3ccc(C(=O)Nc4ccc(Cl)cc4C(=O)O)cc3C2=O)cc1,0.0073
3,CCOC(=O)c1ccc(N2C(=O)c3ccc(C(=O)Nc4ccc(OC)cc4C(=O)O)cc3C2=O)cc1,0.96
4,COc1ccc(NC(=O)c2ccc3c(c2)C(=O)N(Cc2ccccc2)C3=O)c(C(=O)O)c1,41.9
5,NS(=O)(=O)c1ccc(N2C(=O)c3ccc(C(=O)Nc4ccc(Cl)cc4C(=O)O)cc3C2=O)cc1,0.0039
6,O=C(Nc1ccc(Cl)cc1C(=O)O)c1ccc2c(c1)C(=O)OC2=O,0.052
7,COc1ccc(NC(=O)c2ccc3c(c2)C(=O)OC3=O)c(C(=O)O)c1,> 0.1
8,COc1ccc(NC(=O)c2ccc3c(c2)C(=O)N(CCc2ccc(S(N)(=O)=O)cc2)C3=O)c(C(=O)O)c1,0.0082

# Further lines, results first:
row,Ki [µM],SMILES
1,0.53,CCOC(=O)c1ccc(N2C(=O)c3ccc(C(=O)Nc4ccc(Cl)cc4C(=O)O)cc3C2=O)cc1
2,0.036,COc1ccc(NC(=O)c2ccc3c(c2)C(=O)N(Cc2ccc(S(N)(=O)=O)cc2)C3=O)c(C(=O)O)c1
3,47.3,O=C(Nc1ccc(Cl)cc1C(=O)O)c1ccc2c(c1)C(=O)N(Cc1ccccc1)C2=O
4,0.0088,COc1ccc(NC(=O)c2ccc3c(c2)C(=O)N(c2ccc(S(N)(=O)=O)cc2)C3=O)c(C(=O)O)c1
5,8.2,COc1ccc(NC(=O)c2ccc3c(c2)C(=O)N(c2ccccc2)C3=O)c(C(=O)O)c1
6,0.46,O=C(O)c1ccc(N2C(=O)c3ccc(C(=O)Nc4ccc(Cl)cc4C(=O)O)cc3C2=O)cc1
7,0.0216,NS(=O)(=O)c1ccc(CN2C(=O)c3ccc(C(=O)Nc4ccc(Cl)cc4C(=O)O)cc3C2=O)cc1
8,0.72,COc1ccc(NC(=O)c2ccc3c(c2)C(=O)N(c2ccc(C(=O)O)cc2)C3=O)c(C(=O)O)c1
9,5.5,O=C(Nc1ccc(Cl)cc1C(=O)O)c1ccc2c(c1)C(=O)N(c1ccccc1)C2=O
10,39.6,O=C(Nc1ccc(Cl)cc1C(=O)O)c1ccc2c(c1)C(=O)N(CCc1ccccc1)C2=O

# Molecular target: Carbonic anhydrase 2 (Homo sapiens, UniProt P00918)
# Experiment: Inhibition of recombinant human CA2 preincubated for 15 mins by phenol red dye-based stopped-flow CO2 hydration assay
# Details: not given
row,Ki [µM],SMILES
1,> 100,COc1ccc(NC(=O)c2ccc3c(c2)C(=O)N(CCc2ccccc2)C3=O)c(C(=O)O)c1
2,> 100,O=C(Nc1ccc(Cl)cc1C(=O)O)c1ccc2c(c1)C(=O)N(Cc1ccccc1)C2=O
3,> 100,COc1ccc(NC(=O)c2ccc3c(c2)C(=O)N(c2ccccc2)C3=O)c(C(=O)O)c1
